Measured values taken from US20130224234A1, “TTLL4 PEPTIDES AND VACCINES CONTAINING THE SAME” (Onco Therapy Science, Inc., priority 2010, published 2013).
“Also recorded” adds a separate entry of the source.

Experiments:
peptide-pulsed T2 cells [1] = assay: In vitro CTL induction, IFN-gamma ELISPOT assay (HLA-A*0201); type: cell-based, human; conditions: CTLs induced with peptide from HLA-A*0201 positive donor, peptide-pulsed T2 vs control
From the text: Monocyte-derived dendritic cells (DCs) were used as antigen-presenting cells to induce cytotoxic T lymphocyte (CTL) responses against peptides presented on human leukocyte antigen (HLA). DCs were generated in vitro as described elsewhere (Nakahara S et al., Cancer Res 2003, 63(14): 4112-8). Specifically, peripheral blood mononuclear cells isolated from a normal volunteer (HLA-A*0201 positive) by Ficoll-Plaque (Pharmacia) solution were separated by adherence to a plastic tissue culture dish (Becton Dickinson) so as to enrich them as the monocyte fraction. The monocyte-enriched population was cultured in the presence of 1000 U/ml of granulocyte-macrophage colony-stimulating factor (R&D System) and 1000 U/ml of interleukin (IL)-4 (R&D System) in AIM-V Medium (Invitrogen) containing 2% heat-inactivated autologous serum (AS). After 7 days of culture, the cytokine-induced DCs were pulsed with 20 micro-g/ml of each of the synthesized peptides in the presence of 3 micro-g/ml of beta 2-microglobulin for 3 hr at 37 degrees C. in AIM-V Medium. The generated cells appeared to express DC-associated molecules, such as CD80, CD83, CD86 and HLA class II, on their cell surfaces (data not shown). These peptide-pulsed DCs were then inactivated by X-irradiation (20 Gy) and mixing at a 1:20 ratio with autologous CD8+ T cells, obtained by positive selection with CD8 Positive Isolation Kit (Dynal). These cultures were set up in 48-well plates (Corning); each well contained 1.5×10^4 peptide-pulsed DCs, 3×10^5 CD8+ T cells and 10 ng/ml of IL-7 (R&D System) in 0.5 ml of AIM-V/2% AS medium. Three days later, these cultures were supplemented with IL-2 (CHIRON) to a final concentration of 20 IU/ml. On day 7 and 14, the T cells were further stimulated with the autologous peptide-pulsed DCs. The DCs were prepared each time by the same way described above. CTL was tested against peptide-pulsed T2 cells after the 3rd round of peptide stimulation on day 21 (Tanaka H et al., Br J Cancer 2001, 84(1): 94-9; Umano Y et al., Br J Cancer 2001, 84(8): 1052-7; Uchida N et al., Clin Cancer Res 2004, 10(24): 8577-86; Suda T et al., Cancer Sci 2006, 97(5): 411-9; Watanabe T et al., Cancer Sci 2005, 96(8): 498-506).
(§1) Specifically, peptide-pulsed T2 (1×10^4/well) was prepared as stimulator cells. Cultured cells in 48 wells were used as responder cells. IFN-gamma ELISPOT assay and IFN-gamma ELISA assay were performed under manufacture procedure.
CTLs for those peptides derived from TTLL4 were generated according to the protocols as described in “Materials and Methods”.

peptide-pulsed T2 cells [2] = assay: IFN-gamma ELISA assay of CTL lines (HLA-A*0201); type: cell-based, human; conditions: CTL lines stimulated with peptide, target cells pulsed with peptide vs without peptide pulse
Description: CTLs were expanded in culture using the method similar to the one described by Riddell et al. (Walter E A et al., N Engl J Med 1995, 333(16): 1038-44; Riddell S R et al., Nat Med 1996, 2(2): 216-23). A total of 5×10^4 CTLs were suspended in 25 ml of AIM-V/5% AS medium with 2 kinds of human B-lymphoblastoid cell lines, inactivated by Mitomycin C, in the presence of 40 ng/ml of anti-CD3 monoclonal antibody (Pharmingen). One day after initiating the cultures, 120 IU/ml of IL-2 were added to the cultures. The cultures were fed with fresh AIM-V/5% AS medium containing 30 IU/ml of IL-2 on days 5, 8 and 11 (Tanaka H et al., Br J Cancer 2001, 84(1): 94-9; Umano Y et al., Br J Cancer 2001, 84(8): 1052-7; Uchida N et al., Clin Cancer Res 2004, 10(24): 8577-86; Suda T et al., Cancer Sci 2006, 97(5): 411-9; Watanabe T et al., Cancer Sci 2005, 96(8): 498-506).
as §1
(§2) CTL activity of these CTL lines was determined by IFN-gamma ELISA assay (FIG. 6a-d). […] Furthermore, the CTL clones were established by limiting dilution from the CTL lines as described in “Materials and Methods”, and IFN-gamma production from the CTL clones against target cells pulsed peptide was determined by IFN-gamma ELISA assay.

[3] = tested on: COS7 cells transfected with TTLL4 and HLA-A*0201; assay: Specific CTL activity against target cells expressing TTLL4 and HLA-A*0201; type: cell-based, African green monkey; conditions: for Specific CTL activity against COS7 cells transfected with both TTLL4 and HLA-A*0201: CTL clone (9-805) or CTL line (9-66) established with peptide; for Specific CTL activity against control COS7 cells expressing either HLA-A*0201 or TTLL4: controls: COS7 transfected with only full length TTLL4 or only HLA-A*0201
From the text: The cDNA encoding an open reading frame of target genes or HLA-A*0201 was amplified by PCR. The PCR-amplified product was cloned into a vector. The plasmids were transfected into COST, which is the target genes and HLA-A*0201-null cell line, using lipofectamine 2000 (Invitrogen) according to the manufacturer's recommended procedures. After 2 days from transfection, the transfected cells were harvested with versene (Invitrogen) and used as the target cells (5×10^4 cells/well) for CTL activity assay.
The established CTL lines and clones raised against each peptide were examined for the ability to recognize target cells that express TTLL4 and HLA-A*0201 molecule. […] COS7 cells transfected with either full length of TTLL4 or HLA-A*0201 were prepared as the controls.

peptide-pulsed T2 cells [4] = assay: IFN-gamma ELISA assay of CTL clones (HLA-A*0201); type: cell-based, human; conditions: CTL clones by limiting dilution, target cells pulsed with peptide vs control
Description: The dilutions were made to have 0.3, 1, and 3 CTLs/well in 96 round-bottomed micro titer plate (Nalge Nunc International). CTLs were cultured with 1×10^4 cells/well of 2 kinds of human B-lymphoblastoid cell lines, 30 ng/ml of anti-CD3 antibody, and 125 U/ml of IL-2 in a total of 150 micro-l/well of AIM-V Medium containing 5% AS. 50 micro-l/well of IL-2 were added to the medium 10 days later so to reach a final concentration of 125 U/ml IL-2. CTL activity was tested on the 14th day, and CTL clones were expanded using the same method as described above (Uchida N et al., Clin Cancer Res 2004, 10(24): 8577-86; Suda T et al., Cancer Sci 2006, 97(5): 411-9; Watanabe T et al., Cancer Sci 2005, 96(8): 498-506).
as §1, §2

## GLGPGLLGV [SEQ ID NO: 44]
peptide-pulsed T2 cells [1]; listed as TTLL4-A02-9-66
  Peptide specific CTL activity (IFN-gamma production, ELISPOT): potent IFN-gamma production; also recorded: significant and specific CTL activity
peptide-pulsed T2 cells [2]
  IFN-gamma production of CTL lines (ELISA): potent IFN-gamma production
[3]; listed as TTLL4-A02-9-66
  Specific CTL activity against COS7 cells transfected with both TTLL4 and HLA-A*0201: specific CTL activity; also recorded: potent CTL activity
[3]
  Specific CTL activity against control COS7 cells expressing either HLA-A*0201 or TTLL4: no significant specific CTL activity was detected

## FMWPNSTPV [SEQ ID NO: 38]
peptide-pulsed T2 cells [4]; listed as TTLL4-A02-9-222
  IFN-gamma production of CTL clones (ELISA): Potent IFN-gamma productions
peptide-pulsed T2 cells [1]; listed as TTLL4-A02-9-222
  Peptide specific CTL activity (IFN-gamma production, ELISPOT): potent IFN-gamma production; also recorded: significant and specific CTL activity
peptide-pulsed T2 cells [2]
  IFN-gamma production of CTL lines (ELISA): potent IFN-gamma production

## ALIYSLFPNV [SEQ ID NO: 59]
peptide-pulsed T2 cells [4]; listed as TTLL4-A02-10-574
  IFN-gamma production of CTL clones (ELISA): Potent IFN-gamma productions
peptide-pulsed T2 cells [1]; listed as TTLL4-A02-10-574
  Peptide specific CTL activity (IFN-gamma production, ELISPOT): potent IFN-gamma production; also recorded: significant and specific CTL activity
peptide-pulsed T2 cells [2]
  IFN-gamma production of CTL lines (ELISA): potent IFN-gamma production

## FMHLTNYSV [SEQ ID NO: 39]
peptide-pulsed T2 cells [4]; listed as TTLL4-A02-9-805
  IFN-gamma production of CTL clones (ELISA): Potent IFN-gamma productions
peptide-pulsed T2 cells [1]; listed as TTLL4-A02-9-805
  Peptide specific CTL activity (IFN-gamma production, ELISPOT): potent IFN-gamma production; also recorded: significant and specific CTL activity
peptide-pulsed T2 cells [2]
  IFN-gamma production of CTL lines (ELISA): potent IFN-gamma production
[3]; listed as TTLL4-A02-9-805
  Specific CTL activity against COS7 cells transfected with both TTLL4 and HLA-A*0201: specific CTL activity; also recorded: potent CTL activity
[3]
  Specific CTL activity against control COS7 cells expressing either HLA-A*0201 or TTLL4: no significant specific CTL activity was detected
